For orientation: melting point means the temperature, or range, at which the solid turns liquid.

Compound `CN(C)CCNc1cc(Oc2ccc3c(C(=O)Nc4cc(C(C)(C)C)nn4-c4ccc(F)cc4)cccc3c2)ncn1` yielded a melting point of 153 to 155 °C.
In turn, `Cc1ccc2c(c1)CCN1C2CC(=O)C2CCCCC21` (stereo unspecified) showed a melting point of 101 to 121 °C.
`N#Cc1cccc(-c2cc(-c3ccc(C#N)cc3[N+](=O)[O-])no2)c1` yielded a melting point of 235 to 238 °C.
As for `CC(C)(C)c1cc(CCc2ccccc2NC(=O)N2CCN(Cc3ccc4c(c3)OCO4)CC2)cc(C(C)(C)C)c1O`, the melting point lay in the range of 149 to 151 °C.
`CN(C)C=C(C#N)C(=O)c1ccc(C(C)(CN)C(=O)OC(C)(C)C)cc1` (stereo unspecified) returned a melting point of 160 to 162 °C.
For `CC(=O)Nc1ccc(OC(=O)COCc2ccccc2)cc1`, the melting point lay within 106 to 109 °C.
The figure for `CC(O)Cn1cnc2cnc3ccccc3c21` (stereo unspecified) is 171 °C.
`COc1cc2c(cc1F)CC/C2=C\C#N` displayed a melting point of 197 to 199 °C.
For the compound `COc1ccc(-n2c(=O)c(CCCO)c(O)c3cccnc32)cc1`, the melting point lay within 229 to 231 °C.
`OCCNCCNCc1ccc(-c2cc3ncnc(Nc4ccc5[nH]ccc5c4)c3s2)cc1` showed a melting point of 78 to 95 °C.
The figure for `COc1ccc(C(=O)Nc2ccc(F)cc2)cc1N` is 164 to 167 °C; for `O=C(O)CCn1c(=O)c2ccccc2n(CCCN2CCC(OC(c3ccccc3)c3ccccc3)CC2)c1=O` it is 150 to 151 °C.
Take `CCCS(=O)(=O)c1ccc2c(c1)C(=O)C(Br)C2` (stereo unspecified): the melting point lay within 87 to 89 °C.
In turn, `Cc1cn(Nc2cccc(Cl)c2)c(=S)n1-c1ccc(Br)cc1` returned a melting point of 220 °C.
Turning to `CN(C)CC1CCc2cc(OCc3ccc(NC(=O)c4ccccc4)cc3)ccc2C1` (stereo unspecified), the melting point was 128 to 133 °C.
The compound `CCCCN(C(=O)c1cc(C)oc1C)C1CC(C)(C)NC(C)(C)C1` had a melting point of 78 to 79 °C.
`CCc1c(C(=O)OC)c(C(F)(F)F)nc(C(F)(F)F)c1C(=O)OC` registered a melting point of 45 to 47 °C.
With `CC1(CCSc2nc3ccccc3o2)Cn2cc([N+](=O)[O-])nc2O1` (stereo unspecified), the melting point was in the range of 174 to 175 °C.
The compound `COc1ccc2c(c1)S(=O)(=O)C(C(=O)Nc1ccc(F)cc1)C(=O)N2C` (stereo unspecified) yielded a melting point of 202 to 204 °C.
For `O=C(O)C(=O)c1ccc(OCCOC2CCc3ccccc3C2)cc1` (stereo unspecified), the melting point lay within 119 to 120 °C.
The figure for `COC(=O)C=Cc1ccc(-c2ccc(OC(F)(F)F)cc2)cc1` is 98 to 100 °C; for `Clc1ccc(-c2cccs2)cn1` it is 124 to 126 °C; for `N#Cc1cc(N)c(F)c(-c2ccc(Cl)cc2)n1` it is 185 to 188 °C.
`CC(C)c1ccc(C(=O)C2=C(O)C(=O)N(c3ccc(O)nn3)C2c2ccc(OC(F)(F)F)cc2)cc1` (stereo unspecified) came in with a melting point of 255 °C.
`CCc1scc(C(=O)OC)c1NC(=O)C(F)(F)F` displayed a melting point of 55 to 56 °C.
`CC1=C(C(=O)NCc2ccncc2)SCN1n1ccc(O)cc1=O` yielded a melting point of 275 to 278 °C.
In turn, `Ic1n[nH]c2ccccc12` returned a melting point of 54 to 55 °C.
With `O=C(Nc1ccc2ccc(Cl)nc2n1)c1ccc(Cl)cc1`, the melting point was 268 °C.
As to `CC(C)NCC(O)COc1cccc(-c2nc(C(F)(F)F)c[nH]2)c1` (stereo unspecified), the melting point lay within 162 to 164 °C.
The compound `CC(C)n1cc(-c2ccc(F)cc2)nn1` came in with a melting point of 54 to 55 °C.
With `COc1ccc(C(CN)C2CCCCC2O)cc1` (mixture of isomers), the melting point is 79 to 81 °C.
In turn, `CCCCCCC(C(=O)O)n1ccc2cc(-c3ccccc3C(=O)O)ccc21` (stereo unspecified) came in with a melting point of 115 to 120 °C.
For `CCCOc1ccc(CCCCCC(=O)O)cc1` the value was 42 to 43 °C; for `Cc1n[nH]cc1-c1cccc2c1nnn2-c1ccnc(NC2CCN(S(C)(=O)=O)CC2)n1`, 231 to 232 °C.
Consider `N#Cc1ccc(N2C(=O)N(CCCCO)C3(CCCCC3)C2=O)cc1C(F)(F)F`, for which the melting point came out at 145 °C.
Compound `O=C(O)COc1ccc(C(=O)C=Cc2ccccc2F)c(Cl)c1Cl` showed a melting point of 191 to 194 °C.

The values above are taken from a melting point compilation (Tetko et al.; mined from patent text by program, amines drawn as free bases though some values may be those of a salt).
